Assay [1] deals with Cyclin-dependent kinase 2/cyclin E (Homo sapiens) (UniProt P24864+P24941+O96020). The assay can be described thus: Inhibition of CDK2/Cyclin E (unknown origin) at 500 nM. It is filed as protein-complex assay.
The target in assay [2] is Cyclin-dependent kinase 2/cyclin E (Homo sapiens, UniProt P24941). The assay can be described thus: Inhibition of CDK2/Cyclin E (unknown origin). It is filed as protein-complex assay.
A further assay relates to HCT-116. The assay can be described thus: Antiproliferative activity against human HCT-116 cells assessed as inhibition of cell proliferation. It is filed as functional, cell-based.
The test system of another assay is MV4-11. As to the kind of experiment: Antiproliferative activity against human MV4-11 cells assessed as inhibition of cell proliferation. In kind it is functional, cell-based.
The target in assay [3] is Cyclin-dependent kinase 4/cyclin D1 (Homo sapiens, UniProt P11802). The assay can be described thus: Inhibition of CDK4/Cyclin D1 (unknown origin). In kind it is protein-complex assay.
The next assay concerns the target CDK6/cyclin D3 (Homo sapiens, UniProt Q00534). As to the kind of experiment: Inhibition of CDK6/Cyclin D3 (unknown origin). It is filed as protein-complex assay.
For assay [4], the species on record is Homo sapiens. As to the kind of experiment: Selectivity ratio of IC50 for inhibition of CDK4/Cyclin D1 (unknown origin) to IC50 for inhibition of CDK2/Cyclin E (unknown origin).
The species named for assay [5] is Homo sapiens. The assay can be described thus: Selectivity ratio of IC50 for inhibition of CDK6/Cyclin D3 (unknown origin) to IC50 for inhibition of CDK2/Cyclin E (unknown origin).

The source of these data is ChEMBL document CHEMBL5257095, “Synthesis and biological evaluation of novel pteridin-7(8H)-one derivatives as potent CDK2 inhibitors” (Bioorg Med Chem Lett, 2023).

The structures appear in SMILES notation.

CDK6/cyclin D3, sequence (P30281 whole entry): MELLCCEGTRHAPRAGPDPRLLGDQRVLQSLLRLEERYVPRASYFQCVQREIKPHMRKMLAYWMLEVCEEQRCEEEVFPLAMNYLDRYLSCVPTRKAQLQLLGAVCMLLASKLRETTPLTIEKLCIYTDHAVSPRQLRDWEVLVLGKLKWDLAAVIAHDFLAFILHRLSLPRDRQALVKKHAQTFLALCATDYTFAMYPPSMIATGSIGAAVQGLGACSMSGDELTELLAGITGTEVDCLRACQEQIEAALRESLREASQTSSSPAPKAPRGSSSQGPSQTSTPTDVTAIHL
CDK6/cyclin D3, sequence (Q00534 whole entry): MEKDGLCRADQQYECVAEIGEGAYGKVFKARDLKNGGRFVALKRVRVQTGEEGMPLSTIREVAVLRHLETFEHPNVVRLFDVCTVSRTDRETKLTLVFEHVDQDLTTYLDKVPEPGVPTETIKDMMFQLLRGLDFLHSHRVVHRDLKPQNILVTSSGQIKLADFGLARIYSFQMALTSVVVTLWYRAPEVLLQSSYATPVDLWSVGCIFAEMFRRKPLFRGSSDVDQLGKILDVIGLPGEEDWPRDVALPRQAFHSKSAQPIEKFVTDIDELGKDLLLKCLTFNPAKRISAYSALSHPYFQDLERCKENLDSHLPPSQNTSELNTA
Cyclin-dependent kinase 4/cyclin D1, sequence (P11802 whole entry): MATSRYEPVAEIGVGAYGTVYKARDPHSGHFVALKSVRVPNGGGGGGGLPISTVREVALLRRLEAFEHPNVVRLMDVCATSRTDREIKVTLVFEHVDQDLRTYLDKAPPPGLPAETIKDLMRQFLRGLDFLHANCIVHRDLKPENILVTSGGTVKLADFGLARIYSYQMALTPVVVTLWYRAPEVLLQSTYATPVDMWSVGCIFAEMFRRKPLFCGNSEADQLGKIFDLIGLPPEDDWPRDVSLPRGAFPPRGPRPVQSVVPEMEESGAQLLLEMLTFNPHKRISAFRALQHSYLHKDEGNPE
Cyclin-dependent kinase 4/cyclin D1, sequence (P24385 whole entry, further chain): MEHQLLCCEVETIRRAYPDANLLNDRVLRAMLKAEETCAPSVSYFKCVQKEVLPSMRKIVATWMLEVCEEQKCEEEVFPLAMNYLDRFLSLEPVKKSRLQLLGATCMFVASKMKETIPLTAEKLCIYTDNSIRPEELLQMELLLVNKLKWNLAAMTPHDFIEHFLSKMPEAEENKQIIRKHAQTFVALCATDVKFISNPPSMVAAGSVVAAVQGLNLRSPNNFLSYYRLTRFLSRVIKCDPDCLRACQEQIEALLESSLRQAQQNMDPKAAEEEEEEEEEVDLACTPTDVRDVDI

Consider `CN1CCN(c2ccc(Nc3ncc4nc(O)c(=O)n(C5CCCC5)c4n3)cc2)CC1`, for which the inhibition in assay [1] stood at 48.3%. The figures for the IC50 (in assay [2]; in the assay on HCT-116; in the assay with MV4-11) were 1600 nM, 6.23 µM and 4.92 µM, respectively.

Molecule `COc1nc2cnc(NC3CCN(S(C)(=O)=O)CC3)nc2n(C2CCCC2)c1=O` gave an inhibition in assay [1] of 82.4%. For the same molecule, the 50% inhibitory concentration (IC50) in assay [2] was 160 nM; in the assay on HCT-116, 1.93 µM; with MV4-11 it was 2.57 µM.

In turn, `CS(=O)(=O)N1CCC(Nc2ncc3nc(NN)c(=O)n(C4CCCC4)c3n2)CC1` came in with an inhibition in assay [1] of 85.6%. Also, the half-maximal inhibitory concentration (IC50) in assay [2] is 130 nM; in the assay on HCT-116, 1.62 µM; in the assay with MV4-11 it was 1.95 µM; in assay [3], 340 nM; on CDK6/cyclin D3, 460 nM. Moreover, the Ratio IC50 in the assay listed under Homo sapiens [4] stood at 3; in the assay listed under Homo sapiens [5], 4.

In assay [1], `CS(=O)(=O)c1ccc(Nc2ncc3nc(O)c(=O)n(C4CCCC4)c3n2)cc1` registered an inhibition of 30%.

`CN(C)S(=O)(=O)N1CCC(Nc2nc3cnc(NN)nc3n(C3CCCC3)c2=O)CC1` registered an inhibition in assay [1] of 27.1%.

`CCNc1ncc2nc(NC3CCN(S(C)(=O)=O)CC3)c(=O)n(C3CCCC3)c2n1`: in assay [1], the inhibition came out at 34.4%.

In the case of `CCC(C)n1c(=O)c(OC)nc2cnc(NC3CCN(S(C)(=O)=O)CC3)nc21` (stereo not given), the inhibition in assay [1] turned out to be 70.2%. Moreover, the IC50 was 500 nM in assay [2], 6.34 µM in the assay with HCT-116 and 7.81 µM with MV4-11.

Molecule `COc1nc2cnc(NC3CCN(S(=O)(=O)N(C)C)CC3)nc2n(C2CCCC2)c1=O` gave an inhibition in assay [1] of 36.1%.

Molecule `CCS(=O)(=O)N1CCC(Nc2ncc3nc(O)c(=O)n(C4CCCC4)c3n2)CC1` yielded an inhibition in assay [1] of 65.4%. The IC50 came to 1040 nM in assay [2], 9.32 µM with HCT-116 and 9.15 µM with MV4-11.

Turning to `COc1nc2cnc(NC3CCN(S(C)(=O)=O)CC3)nc2n(C2CCOCC2)c1=O`, the inhibition in assay [1] is 45.8%. In addition, the IC50 in assay [2] is 1700 nM; with HCT-116, 5.01 µM; in the assay with MV4-11 it was 4.26 µM.

With `CS(=O)(=O)N1CCC(Nc2ncc3nc(O)c(=O)n([C@@H]4CCC[C@H]4O)c3n2)CC1`, in assay [1], the inhibition came out at 43%.

In the case of `CCS(=O)(=O)N1CCC(Nc2ncc3nc(NC)c(=O)n(C4CCCC4)c3n2)CC1`, the inhibition in assay [1] amounted to 45.4%.

For `C[C@@]1(O)CCC[C@H]1n1c(=O)c(C(F)F)cc2cnc(NC3CCN(S(C)(=O)=O)CC3)nc21` [EBVACICLIB], the inhibition in assay [1] was 98.8%. In addition, the IC50 in the assay on HCT-116 was 0.22 µM; with MV4-11 it was 0.57 µM.

On to `CS(=O)(=O)N1CCC(Nc2nc3cnc(NCC(F)F)nc3n(C3CCCC3)c2=O)CC1`, for which the inhibition in assay [1] worked out at 35.1%.

In assay [1], `CS(=O)(=O)c1ccc(Nc2ncc3nc(NN)c(=O)n(C4CCCC4)c3n2)cc1` displayed an inhibition of 67.3%. Further, the 50% inhibitory concentration (IC50) amounted to 920 nM in assay [2], 3.43 µM with HCT-116 and 1.17 µM with MV4-11.

For the molecule `CCNc1ncc2nc(NC3CCN(S(=O)(=O)N(C)C)CC3)c(=O)n(C3CCCC3)c2n1`, in assay [1], the inhibition was 43.2%.

For the molecule `CCC(C)n1c(=O)c(O)nc2cnc(NC3CCN(S(C)(=O)=O)CC3)nc21` (stereo not given), in assay [1], the inhibition amounted to 23.4%.

`CNc1nc2cnc(NC3CCN(S(C)(=O)=O)CC3)nc2n(C2CCCC2)c1=O`: in assay [1], the inhibition is 46.2%.

In the case of `CS(=O)(=O)N1CCC(Nc2ncc3nc(O)c(=O)n(C4CCOCC4)c3n2)CC1`, the inhibition in assay [1] was 9.3%.

`CS(=O)(=O)c1ccc(Nc2ncc3c(n2)n(C2CCCC2)c(=O)c2nncn23)cc1` displayed an inhibition in assay [1] of 1.7%.

In assay [1], `CCNc1nc2cnc(NC3CCN(S(C)(=O)=O)CC3)nc2n(C2CCCC2)c1=O` gave an inhibition of 20.3%.

Take `CS(=O)(=O)N1CCC(Nc2ncc3nc(NCC(F)F)c(=O)n(C4CCCC4)c3n2)CC1`: in assay [1], the inhibition is 51.2%.

On to `CN(C)S(=O)(=O)N1CCC(Nc2nc3cnc(NCC(F)F)nc3n(C3CCCC3)c2=O)CC1`, for which the inhibition in assay [1] is 38.2%.

`CNc1nc2cnc(NC3CCN(S(=O)(=O)C4CC4)CC3)nc2n(C2CCCC2)c1=O` had an inhibition in assay [1] of 9.2%.

`CS(=O)(=O)N1CCC(Nc2ncc3nc(O)c(=O)n(C4CCCC4)c3n2)CC1` gave an inhibition in assay [1] of 62.2%. The figures for the IC50 (in assay [2]; with HCT-116; in the assay on MV4-11) were 1220 nM, 10.6 µM and 13.9 µM, respectively.

In assay [1], `CCC(CC)n1c(=O)c(O)nc2cnc(NC3CCN(S(C)(=O)=O)CC3)nc21` gave an inhibition of 39.2%.

In assay [1], `CS(=O)(=O)N1CCC(Nc2ncc3nc(O)c(=O)n(C4CCNC4)c3n2)CC1` (stereo not given) displayed an inhibition of 4.1%.

`O=c1c(O)nc2cnc(NC3CCN(S(=O)(=O)C4CC4)CC3)nc2n1C1CCCC1` had an inhibition in assay [1] of 20.1%.

In assay [1], `CS(=O)(=O)N1CCC(Nc2nc3cnc(NN)nc3n(C3CCCC3)c2=O)CC1` registered an inhibition of 26.8%.

Consider `CN(C)S(=O)(=O)N1CCC(Nc2ncc3nc(O)c(=O)n(C4CCCC4)c3n2)CC1`, for which the inhibition in assay [1] is 15.8%.

`CCC(CC)n1c(=O)c(OC)nc2cnc(NC3CCN(S(C)(=O)=O)CC3)nc21` displayed an inhibition in assay [1] of 79.6%. Moreover, the half-maximal inhibitory concentration (IC50) in assay [2] was 350 nM; with HCT-116, 5.5 µM; in the assay on MV4-11, 4.88 µM.

In assay [1], `CS(=O)(=O)N1CCC(Nc2ncc3c(n2)n(C2CCCC2)c(=O)c2nncn23)CC1` showed an inhibition of 14.2%.
